Measured values as given in patent US8629163B2, “Tetrakis-quaternary ammonium salts and methods for modulating neuronal nicotinic acteylcholine receptors” (University of Kentucky Research Foundation, priority 2007, dated 2014).

Columns and labels:
[1] = target: T1, α4β2 neuronal nicotinic acetylcholine receptors (Rattus norvegicus, UniProt P09483+P12390); assay: Inhibition of [^3H]nicotine (NIC) binding to rat brain membranes; conditions: % inhibition at 100 nM analog; 3 nM [^3H]NIC; nonspecific 10 μM cytisine; 3-4 independent experiments
T1 construct: The brain tissue was homogenized with a Tekmar Polytron; from tissue; host or cells: rat brain membranes (whole brain without cortex and cerebellum)
Description: (§1) Rat brain was dissected into the whole brain tissue without cortex and cerebellum and was frozen in liquid nitrogen and stored at −70° C. until use. The brain tissue was homogenized with a Tekmar Polytron (setting 40) in 20 volumes of ice-cold hypotonic buffer (2 mM HEPES, 14.4 mM NaCl, 0.15 mM KCl, 0.2 mM CaCl2 and […], pH=7.5). The homogenate was centrifuged at 25,000×g for 17 minutes at 4° C. The pellet was resuspended in 20 volumes of the same buffer, and incubated for 10 min at 37° C. The resuspension was cooled to 4° C. and then centrifuged at the above parameters. The pellet was resuspended by sonicaton and centrifuged using the same conditions. The final pellet was stored at −20° C. under 10 ml of the incubation buffer and was suspended just before incubation with radioligand.
(§2) The binding of [^3H]NIC and [^3H]MLA to probe α4β2 and α7-type neuronal nicotinic acetylcholine receptors, respectively, was determined using [^3H]NIC (67 Ci/mmol) and [^3H]MLA (60 Ci/mmol), purchased from Perkin Elmer Life Sciences, Boston, Mass., U.S.A. and American Radiolabel Chemicals, Inc., St. Louis, Mo., U.S.A. Binding was performed in duplicate, in a final volume of 250 μl of the incubation medium, containing 20 mM HEPES, 144 mM NaCl, 1.5 mM KCl, 2 mM CaCl2, and 1 mM MgSO4, pH=7.5. Reaction was initiated by the addition of 100 μL of membrane suspension to the samples containing a desired concentration of test compounds and 3 nM [^3H]NIC or 3 nM [^3H]MLA (final concentrations) and incubated for 60 min at room temperature. Total binding was measured in the absence of unlabelled ligand and nonspecific binding was determined in the presence of 10 μM cytisine, for [^3H]NIC binding, and 10 μM nicotine for [^3H]MLA. The binding reaction was terminated by dilution of samples with 3 mL of ice-cold incubation buffer followed by immediate filtration through Unifilter-96 GFB-filter plates presoaked in 0.5% polyethylenimine using a Filtermate Harvester (Perkin Elmer, Shelton, Conn., U.S.A.). Filters were rinsed five times with 350 μL of ice-cold buffer, and then filter plates were dried at 48° C. for 60 min, bottom sealed and each well filled with 40 μL of Packard Microscint-20 cocktail. After 60 min of gentle shaking, the filter plates were top sealed and radioactivity measured using a Packard TopCount NXT scintillation counter. CPMs were processed through a Packard Windows NT operating system. Protein was measured using the Bradford dye-binding procedure with bovine serum albumin as the standard.
(§3) The ability of a probe concentration of 100 nM of the tetrakis-quaternary ammonium salts to inhibit specific binding was evaluated.
(§4) ^aData are % inhibition at 100 nM concentration of analog for 3-4 independent experiments. Specific binding in the [^3H]NIC binding assay is calculated as the difference between the total binding of 3 nM [^3H]NIC and nonspecific binding in the presence of 10 μM cytisine. Specific binding for the [^3H]MLA binding assay is calculated as the difference between the total binding of 3 nM [^3H]MLA to the receptors alone and its nonspecific binding in the presence of 10 μM nicotine. Analog-induced inhibition of nicotine-evoked [^3H]DA release is calculated as a percent of that in the absence of analog.

rat striatal slices = assay: Nicotine-evoked [^3H]dopamine release (overflow) from superfused rat striatal slices; type: cell-based; conditions: for inhibition at 0.1 µM: % inhibition at 100 nM analog, 10 μM S(-)nicotine, rat striatal slices, read-out: Inhibition of Nicotine-evoked [^3H]DA release
Description: Rat striatal slices (500 μm thickness, 6 mg wet weight) were incubated for 30 minutes in Krebs buffer (118 mM NaCl, 4.7 mM KCl, 1.2 mM MgCl2, 1.0 mM NaH2PO4, 1.3 mM CaCl2, 11.1 mM glucose, 25 mM NaHCO3, 0.11 mM L-ascorbic acid, and 0.004 mM disodium EDTA; pH 7.4, and saturated with 95% O2/5% CO2) in a metabolic shaker at 34° C. Slices were rinsed with 15 mL of fresh buffer and incubated for an additional 30 minutes in fresh buffer containing 0.1 μM [^3H]dopamine (DA; 6 slices/3 mL). Subsequently, slices were rinsed with 15 mL of fresh buffer and each slice transferred to a superfusion chamber. Slices were superfused (0.6 mL/min) for 60 minutes with Krebs buffer containing nomifensine (10 μM) and pargyline (10 μM) and maintained at 34° C., pH 7.4, with continual aeration (95% O2/5% CO2). Two 4-minute samples (2.4 mL each) were collected to determine basal outflow of [^3H]DA. Slices were superfused for 36 min following addition of the analogs to the superfusion buffer after the collection of the second sample and nine 4-minute samples were collected. For initial probe assays, the concentration of analog was 100 nM. For concentration-response studies, the concentration of analog varied from 1 nM to 10 μM, and the effect of each concentration was determined using striatal slices obtained from an individual animal (repeated measures design). Subsequently, S(−)nicotine (10 μM) was added to the buffer and nine additional 4-minute samples were collected. At the end of the experiment, each slice was solubilized and the [^3H] content of the tissue determined.
Radioactivity in the superfusate and tissue samples was determined by liquid scintillation spectroscopy. Fractional release for tritium collected in each sample was divided by the total tritium present in the tissue at the time of sample collection and was expressed as a percentage of total tritium. Basal [^3H]outflow was calculated from the average of the tritium collected in the two […] samples just before addition of the analog. The sum of the increase in collected tritium resulting from either exposure to the test compound or exposure to S(−)nicotine in the absence and presence of the test compound equaled total [^3H]overflow. [^3H]Overflow was calculated by subtracting the [^3H]outflow during an equivalent period of prestimulation from the values in samples collected during and after drug exposure. Inasmuch as the radiolabelled compounds were not separated and identified, the tritium collected in superfusate is referred to as either [^3H]outflow or [^3H]overflow, rather than as [^3H]DA. [^3H]Overflow primarily represents [^3H]DA in the presence of nomifensine and pargyline in the superfusion buffer. […]
Analogs were also evaluated for their ability to inhibit NIC evoked [^3H]DA release. Antagonist activity was evaluated by comparing the NIC-evoked [^3H]overflow in the absence and presence of the analogs (see Table 1). […] Data are expressed as M±SEM. Control represents absence of compound. N=4/analog, *p<0.05
as §4
^bIC50 from full concentration response assay; data from 4-5 independent experiments, each performed in duplicate.

[2] = target: T2, α7-type neuronal nicotinic acetylcholine receptors (Rattus norvegicus, UniProt Q05941); assay: Inhibition of [^3H]methyllycaconitine (MLA) binding to rat brain membranes; conditions: % inhibition at 100 nM analog; 3 nM [^3H]MLA; nonspecific 10 μM nicotine; 3-4 independent experiments
T2 construct: The brain tissue was homogenized with a Tekmar Polytron; from tissue; host or cells: rat brain membranes (whole brain without cortex and cerebellum)
Description: as §1, §2, §3, §4

[3] = target: T2, α7-type neuronal nicotinic acetylcholine receptors; assay: as above

T1 sequence (P09483 31-630): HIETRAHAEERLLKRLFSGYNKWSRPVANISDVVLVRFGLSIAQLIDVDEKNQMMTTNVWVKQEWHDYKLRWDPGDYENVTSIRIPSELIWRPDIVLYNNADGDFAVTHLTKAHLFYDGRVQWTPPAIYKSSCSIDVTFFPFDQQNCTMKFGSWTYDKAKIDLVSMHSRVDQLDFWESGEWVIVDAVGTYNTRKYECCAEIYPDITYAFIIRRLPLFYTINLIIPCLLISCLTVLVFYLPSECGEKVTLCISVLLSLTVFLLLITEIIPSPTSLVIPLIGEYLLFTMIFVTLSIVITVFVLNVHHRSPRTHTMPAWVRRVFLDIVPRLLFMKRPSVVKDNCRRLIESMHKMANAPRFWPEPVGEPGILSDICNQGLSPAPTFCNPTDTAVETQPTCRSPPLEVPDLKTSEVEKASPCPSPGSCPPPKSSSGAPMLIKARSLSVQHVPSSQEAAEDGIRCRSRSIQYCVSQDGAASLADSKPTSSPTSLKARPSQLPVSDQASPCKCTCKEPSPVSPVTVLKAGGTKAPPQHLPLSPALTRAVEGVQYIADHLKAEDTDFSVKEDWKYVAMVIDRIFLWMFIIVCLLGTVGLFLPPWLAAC
T1 sequence (P12390 25-500): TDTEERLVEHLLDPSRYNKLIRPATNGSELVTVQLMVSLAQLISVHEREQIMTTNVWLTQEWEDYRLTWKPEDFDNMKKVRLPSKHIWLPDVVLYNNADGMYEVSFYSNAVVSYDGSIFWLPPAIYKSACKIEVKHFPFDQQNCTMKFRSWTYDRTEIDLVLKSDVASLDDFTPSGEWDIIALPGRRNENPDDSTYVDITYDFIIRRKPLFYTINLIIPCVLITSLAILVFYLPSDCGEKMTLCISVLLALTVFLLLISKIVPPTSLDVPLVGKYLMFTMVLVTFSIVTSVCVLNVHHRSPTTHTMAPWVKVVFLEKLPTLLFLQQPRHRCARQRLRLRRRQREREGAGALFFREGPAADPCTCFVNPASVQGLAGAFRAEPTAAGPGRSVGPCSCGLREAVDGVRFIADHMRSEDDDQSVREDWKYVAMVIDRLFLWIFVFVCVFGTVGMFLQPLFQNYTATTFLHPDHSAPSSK
T2 sequence (Q05941 23-502): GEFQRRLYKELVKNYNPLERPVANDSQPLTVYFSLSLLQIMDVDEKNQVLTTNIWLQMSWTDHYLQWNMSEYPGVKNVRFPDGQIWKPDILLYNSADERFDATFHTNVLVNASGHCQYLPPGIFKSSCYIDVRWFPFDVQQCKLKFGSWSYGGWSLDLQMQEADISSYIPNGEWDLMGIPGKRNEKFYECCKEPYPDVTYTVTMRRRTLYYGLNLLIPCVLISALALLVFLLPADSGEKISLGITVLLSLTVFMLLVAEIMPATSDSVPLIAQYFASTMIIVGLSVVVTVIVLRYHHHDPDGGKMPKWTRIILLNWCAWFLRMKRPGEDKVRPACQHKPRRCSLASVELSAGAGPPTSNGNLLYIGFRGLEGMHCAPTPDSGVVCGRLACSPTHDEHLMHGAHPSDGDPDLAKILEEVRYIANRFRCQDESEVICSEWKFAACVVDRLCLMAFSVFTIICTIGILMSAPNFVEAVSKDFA

| Compound | Inhibition of [^3H]Nicotine binding [1] [%] | inhibition at 0.1 µM (rat striatal slices) [%] | Inhibition of [^3H]MLA binding [2] [%] | IC50 (rat striatal slices; Rattus norvegicus, full concentration response assay, 4-5 independent experiments in duplicate, 10 μM nicotine, read-out: IC50, inhibition of nicotine-evoked [^3H]DA release (converted)) [nM] | Ki [3] [nM] |
| --- | --- | --- | --- | --- | --- |
| Cc1cc[n+](CCCCCc2cc(CCCCC[n+]3ccc(C)cc3)c(CCCCC[n+]3ccc(C)cc3)cc2CCCCC[n+]2ccc(C)cc2)cc1.[Br-].[Br-].[Br-].[Br-] | 12 ± 8.3 | 46 ± 5 | 8.0 ± 5.3 | – | – |
| [Br-].[Br-].[Br-].[Br-].c1ccc2c[n+](CCCCCc3cc(CCCCC[n+]4ccc5ccccc5c4)c(CCCCC[n+]4ccc5ccccc5c4)cc3CCCCC[n+]3ccc4ccccc4c3)ccc2c1 | 6.5 ± 6.5 | 63 ± 12 | 24 ± 13 | 56 | – |
| Cc1cc[n+](CCCCCc2cc(CCCCC[n+]3ccc(C)c(C)c3)c(CCCCC[n+]3ccc(C)c(C)c3)cc2CCCCC[n+]2ccc(C)c(C)c2)cc1C.[Br-].[Br-].[Br-].[Br-] | 0.5 ± 0.5 | 36 ± 11 | 18 ± 10 | – | – |
| α-bungarotoxin | – | – | – | – | 28.6 ± 5.4 |
